The record followed here is US6995135B2, “Peptides and peptidomimetics having anti-proliferative activity and/or that augment nucleic acid damaging agents or treatments” (priority 2002, dated 2006).

Data set [1] in a line: Maximal tolerated dose in mouse by single injection. The note with it: in vivo, observed for a week.
Data set [2] concerns Jurkat cells. Description: M phase checkpoint abrogation / non specific toxicity in colchicine treated Jurkat cells, flow cytometry. The note with it: with 5 μg/ml colchicine, 24 hours. Type of data set: cell-based. Here is the method: Cell-cycle analysis The cell cycle status of the cells treated with bleomycin or adriamcin were analyzed by flow cytometry as described by Kawabe (1997) Nature 385:454–458. In brief, two million cells were re-suspended and incubated in 200 μul Krishan's solution (0.1% Sodium citrate, 50 μg/ml PI, 20 μg/ml RNase A and 0.5% NP-40) for 1 hr at 4° C. and analyzed by a flow cytometry, FACScan™ (Beckton Dickinson, Mountain View, Calif.) with the program CELLQuest™ (Beckton Dickinson).
Flow cytometry analysis of M phase checkpoint abrogation by the compounds was performed using human T cell leukemia Jurkat cell line treated with colchicine (5 μg/ml or 0.5 μg/ml) and various doses of peptide/peptidomimetics for 24 hr (FIG. 12). The DNA of the cells was stained and analyzed by flow cytometry as described above.
The “Appearance of side effect when used alone” indicates the peptide/peptidomimetic dose that produced Jurkat cell cycle disturbance, i.e., the appearance of significant amounts of SubG1 cells (dead cells) or cells in which the DNA content of each varies more than usual. […]
A comparison between G2 checkpoint abrogating activity and non specific toxicity (M checkpoint abrogation) by CB501 was performed. […] The DNA amount in each of the treated cells was analyzed by flow cytometry, as previously described.

The test system of data set [3] is Jurkat cells. The data set is described as follows: G2 checkpoint abrogation in bleomycin treated Jurkat cells, flow cytometry. It counts as cell-based, human. The note with it: for G2 abrogating dose: Jurkat cells, with 40 μg/ml bleomycine, 24 hours, dose with detectable G2 checkpoint abrogation; for G2 checkpoint abrogating activity (in words): bleomycin (40 μg/ml) treated Jurkat cells, % G2/M cells. (Flow cytometry measures light scatter and fluorescence of single cells or particles in a stream.)
Description: Flow cytometry analysis of G2 checkpoint abrogation was performed using human leukemia derived Jurkat cell line. In brief, cultured cells were treated with various doses of peptide/peptidomimetic and 40 μg/ml bleomycine for 24 hr. The DNA of the cells was stained with propidium iodide and analyzed by flow cytometry.
The “Appearance of side effect when used alone” indicates the peptide/peptidomimetic dose that produced Jurkat cell cycle disturbance, i.e., the appearance of significant amounts of SubG1 cells (dead cells) or cells in which the DNA content of each varies more than usual. […] The “G2 abrogating dose” indicates the peptide/peptidomimetic dose with 40 μg/ml bleomycine that produced detectable G2 checkpoint abrogation activity following treatment for 24 hours. The “Appearance of side effect when used with colchicine” indicates the peptide/peptidomimetic dose with 5 μg/ml colchicine that produced Jurkat cell cycle disturbance following treatment for 24 hours.

In data set [4] the target is T1, recombinant human full length Chk2 (Homo sapiens, UniProt O96017).
T1 construct: E. Coli derived recombinant human full length Chk2 fused with GST; host or cells: E. coli
T1 sequence (O96017 whole entry, the tested form may be a part): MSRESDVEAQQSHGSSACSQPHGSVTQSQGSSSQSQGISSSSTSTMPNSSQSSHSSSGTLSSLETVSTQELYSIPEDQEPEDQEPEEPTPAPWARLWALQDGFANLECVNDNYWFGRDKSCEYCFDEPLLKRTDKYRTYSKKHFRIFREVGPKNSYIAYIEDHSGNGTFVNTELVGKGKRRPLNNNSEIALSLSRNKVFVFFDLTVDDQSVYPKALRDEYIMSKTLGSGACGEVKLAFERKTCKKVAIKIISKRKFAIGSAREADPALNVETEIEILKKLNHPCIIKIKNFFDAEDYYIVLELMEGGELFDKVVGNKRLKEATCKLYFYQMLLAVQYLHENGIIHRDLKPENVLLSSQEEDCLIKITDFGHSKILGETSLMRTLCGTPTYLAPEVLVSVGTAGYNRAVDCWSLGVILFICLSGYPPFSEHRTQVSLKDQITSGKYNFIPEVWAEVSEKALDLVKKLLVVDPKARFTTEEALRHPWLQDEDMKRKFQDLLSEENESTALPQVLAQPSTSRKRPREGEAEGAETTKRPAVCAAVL
The data set is described as follows: In vitro kinase inhibition (CycLex), phosphorylation of serine 216 on GST-Cdc25C. It counts as biochemical. Here is the method: (§1) In vitro kinase inhibition analysis was performed by CycLex, Co. Ltd., Nagano, Japan. Briefly, baculovirus derived recombinant human full length Chk1 with histidine tag or E. Coli derived recombinant human full length Chk2 fused with GST were used as kinases. E. Coli derived recombinant GST-Cdc25C (amino acis 167–267) was used as a substrate. Reaction conditions were 20 mM Hepes-KOH (pH7.5), 1 mM DTT, […] BSA, 10 mM MgCl2 and […] ATP at 30 degree for 60 min. The phosphorylation of serine 216 on GST-Cdc25C was detected by anti-Cdc25C-phosphorylated S216 antibody with enzyme linked immune assay.

The target of data set [5] is T2, recombinant human full length Chk1 (Homo sapiens, UniProt O14757).
T2 construct: baculovirus derived recombinant human full length Chk1 with histidine tag; histidine tag; host or cells: baculovirus system (insect cells)
T2 sequence (O14757 1-476): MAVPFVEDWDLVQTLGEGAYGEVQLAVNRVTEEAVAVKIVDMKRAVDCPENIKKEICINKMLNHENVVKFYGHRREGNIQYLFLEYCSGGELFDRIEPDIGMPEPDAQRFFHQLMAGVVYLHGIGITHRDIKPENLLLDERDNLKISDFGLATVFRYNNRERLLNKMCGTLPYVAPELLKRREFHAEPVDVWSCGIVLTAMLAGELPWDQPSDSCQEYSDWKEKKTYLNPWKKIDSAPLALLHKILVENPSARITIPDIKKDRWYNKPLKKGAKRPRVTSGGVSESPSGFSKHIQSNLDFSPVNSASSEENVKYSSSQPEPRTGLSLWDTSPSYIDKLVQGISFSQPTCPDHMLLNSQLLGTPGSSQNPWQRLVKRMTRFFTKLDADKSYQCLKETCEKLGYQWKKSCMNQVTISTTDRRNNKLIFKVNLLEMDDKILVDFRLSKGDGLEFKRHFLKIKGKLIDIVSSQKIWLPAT
The description is as above. It counts as biochemical. Here is the method: as §1

The nature of data set [6]: Human serum treatment analysis, residual G2 checkpoint abrogating activity. Type of data set: in vitro ADME. The following applies: d-type amino acid peptides compared with l-type peptide such as CBP413. As for the experimental part:
Serum analysis was performed to determine the stability of peptides in mouse and human serum. Briefly, peptides (10 mM or 2.5 mM) were incubated with freshly prepared human serum at 37 degrees for 1 hr. CBP50 (10 mM) was incubated with freshly prepared mouse serum for 1 hr at 37 degree. Jurkat cells were treated with the serum with or without peptides and bleomycin (40 μg/ml) and incubated for 24 hr. The population of G2 phase cells was determined by flow cytometry as previously described. The residual G2 checkpoint abrogating activity of serum treated peptides were determined by comparing the % G2 cells of the treated serum and the standard curve produced with medium treated peptides, bleomycin and Jurkat cells (Table 5A).

Read-outs that look alike come from different tables or passages of the source. Square brackets hold non-standard residues; d marks the D form. Peptide text beside a SMILES is read from it. dPhe(4-NO2) = N[C@H](Cc1ccc([N+](=O)[O-])cc1)C(=O)O; dPhe(F5) = N[C@H](Cc1c(F)c(F)c(F)c(F)c1F)C(=O)O; dBpa = N[C@H](Cc1ccc(C(=O)c2ccccc2)cc1)C(=O)O; dCha = N[C@H](CC1CCCCC1)C(=O)O

By MTD is commonly meant the largest dose that counted as tolerated. Regarding `N=C(N)NCCC[C@H](NC(=O)CNC(=O)[C@@H](N)Cc1ccc(O)cc1)C(=O)N[C@@H](CCCCN)C(=O)N[C@@H](CCCCN)C(=O)N[C@@H](CCCNC(=N)N)C(=O)N[C@@H](CCCNC(=N)N)C(=O)N[C@@H](CCC(N)=O)C(=O)N[C@@H](CCCNC(=N)N)C(=O)N[C@@H](CCCNC(=N)N)C(=O)N[C@@H](CCCNC(=N)N)C(=O)N[C@@H](CC1CCCCC1)C(=O)N[C@@H](Cc1c(F)c(F)c(F)c(F)c1F)C(=O)N[C@@H](CCCNC(=N)N)C(=O)N[C@@H](CO)C(=O)N1CCC[C@H]1C(=O)N[C@@H](CO)C(=O)N[C@@H](Cc1ccc(O)cc1)C(=O)N[C@@H](Cc1ccc(O)cc1)C(=O)O` [CBP413, (l-Tyr)(l-Gly)(l-Arg)(l-Lys)(l-Lys)(l-Arg)(l-Arg)(l-Gln)(l-Arg)(l-Arg)(l-Arg)(l-Cha)(l-Phe-2,3,4,5,6-F)(l-Arg)(l-Ser)(l-Pro)(l-Ser)(l-Tyr)(l-Tyr)], the MTD in data set [1] (ip, single intra-peritoneal injection, read-out: MTD (ip)) came out at 147 mg/kg; in data set [1] (single intravenous injection, read-out: MTD (iv)), 14 mg/kg. Regarding `N=C(N)NCCC[C@H](NC(=O)CNC(=O)[C@@H](N)Cc1ccc(O)cc1)C(=O)N[C@@H](CCCCN)C(=O)N[C@@H](CCCCN)C(=O)N[C@@H](CCCNC(=N)N)C(=O)N[C@@H](CCCNC(=N)N)C(=O)N[C@@H](CCC(N)=O)C(=O)N[C@@H](CCCNC(=N)N)C(=O)N[C@@H](CCCNC(=N)N)C(=O)N[C@@H](CCCNC(=N)N)C(=O)N[C@@H](CC1CCCCC1)C(=O)N[C@@H](Cc1c(F)c(F)c(F)c(F)c1F)C(=O)N[C@@H](CCCNC(=N)N)C(=O)N[C@@H](CO)C(=O)N1CCC[C@H]1C(=O)N[C@@H](CO)C(=O)N[C@@H](Cc1ccc(O)cc1)C(=O)O` [CBP420, (l-Tyr)(l-Gly)(l-Arg)(l-Lys)(l-Lys)(l-Arg)(l-Arg)(l-Gln)(l-Arg)(l-Arg)(l-Arg)(l-Cha)(l-Phe-2,3,4,5,6-F)(l-Arg)(l-Ser)(l-Pro)(l-Ser)(l-Tyr)], the “Appearance of side effect when used with Colchicine” value in the data set on Jurkat cells [2] is “≧50 μM”. Regarding `N=C(N)NCCC[C@@H](NC(=O)[C@@H](CCCCN)NC(=O)[C@@H](CCCCN)NC(=O)[C@@H](CCCNC(=N)N)NC(=O)[C@@H](CCCNC(=N)N)NC(=O)[C@@H](CCC(N)=O)NC(=O)[C@@H](CCCNC(=N)N)NC(=O)[C@@H](CCCNC(=N)N)NC(=O)[C@@H](CCCNC(=N)N)NC(=O)[C@@H](CC1CCCCC1)NC(=O)[C@@H](Cc1c(F)c(F)c(F)c(F)c1F)NC(=O)[C@@H](CCCNC(=N)N)NC(=O)[C@@H](CO)NC(=O)CNC(=O)[C@@H](CO)NC(=O)[C@@H](Cc1ccc(O)cc1)NC(=O)[C@H](N)Cc1ccc(O)cc1)C(=O)NCC(=O)N[C@H](Cc1ccc(O)cc1)C(=O)O` [CBP450, (d-Tyr)(d-Tyr)(d-Ser)(l-Gly)(d-Ser)(d-Arg)(d-Phe-2,3,4,5,6-F)(d-Cha)(d-Arg)(d-Arg)(d-Arg)(d-Gln)(d-Arg)(d-Arg)(d-Lys)(d-Lys)(d-Arg)(l-Gly)(d-Tyr)] (H-[dY][dY][dS]G[dS][dR][dPhe(F5)][dCha][dR][dR][dR][dQ][dR][dR][dK][dK][dR]G[dY]-OH; N-terminus and C-terminus assumed), the G2 abrogating dose entry with Jurkat cells [3] was “≧0.78 μM”. On the same count and under the same terms, the value for `N=C(N)NCCC[C@@H](NC(=O)[C@@H](CCCNC(=N)N)NC(=O)[C@@H](CCC(N)=O)NC(=O)[C@@H](CCCNC(=N)N)NC(=O)[C@@H](CCCNC(=N)N)NC(=O)[C@@H](CCCNC(=N)N)NC(=O)[C@@H](CC1CCCCC1)NC(=O)[C@@H](Cc1c(F)c(F)c(F)c(F)c1F)NC(=O)[C@@H](CO)NC(=O)[C@@H](Cc1c[nH]c2ccccc12)NC(=O)[C@@H](CO)NC(=O)[C@@H](Cc1ccc(C(=O)c2ccccc2)cc1)NC(=O)[C@H](N)Cc1ccc(O)cc1)C(=O)O` [CBP500, (d-Tyr)(d-Bpa)(d-Ser)(d-Trp)(d-Ser)(d-Phe-2,3,4,5,6-F)(d-Cha)(d-Arg)(d-Arg)(d-Arg)(d-Gln)(d-Arg)(d-Arg)] (H-[dY][dBpa][dS][dW][dS][dPhe(F5)][dCha][dR][dR][dR][dQ][dR][dR]-OH; N-terminus and C-terminus assumed) was “≧0.39 μM”.

The IC50 is the midpoint of a concentration-inhibition curve. On to `N=C(N)NCCC[C@@H](NC(=O)[C@@H](CCCNC(=N)N)NC(=O)[C@@H](CCC(N)=O)NC(=O)[C@@H](CCCNC(=N)N)NC(=O)[C@@H](CCCNC(=N)N)NC(=O)[C@@H](CCCNC(=N)N)NC(=O)[C@@H](CC1CCCCC1)NC(=O)[C@@H](Cc1c(F)c(F)c(F)c(F)c1F)NC(=O)[C@@H](CC(=O)O)NC(=O)[C@@H](CO)NC(=O)[C@@H](Cc1c[nH]c2ccccc12)NC(=O)[C@@H](CO)NC(=O)[C@H](N)Cc1ccc(C(=O)c2ccccc2)cc1)C(=O)O` [CBP506, (d-Bpa)(d-Ser)(d-Trp)(d-Ser)(d-Asp)(d-Phe-2,3,4,5,6-F)(d-Cha)(d-Arg)(d-Arg)(d-Arg)(d-Gln)(d-Arg)(d-Arg)] (H-[dBpa][dS][dW][dS][dD][dPhe(F5)][dCha][dR][dR][dR][dQ][dR][dR]-OH; N-terminus and C-terminus assumed), for which the IC50 in data set [4] came to 67 µM; in data set [5], 37.6 µM. Turning to `N=C(N)NCCC[C@@H](NC(=O)[C@@H](CCCNC(=N)N)NC(=O)[C@@H](CCC(N)=O)NC(=O)[C@@H](CCCNC(=N)N)NC(=O)[C@@H](CCCNC(=N)N)NC(=O)[C@@H](CCCNC(=N)N)NC(=O)[C@@H](CC1CCCCC1)NC(=O)[C@@H](Cc1ccc([N+](=O)[O-])cc1)NC(=O)[C@@H](CO)NC(=O)[C@@H](Cc1c[nH]c2ccccc12)NC(=O)[C@@H](CO)NC(=O)[C@H](N)Cc1ccc(C(=O)c2ccccc2)cc1)C(=O)O` [CBP603, (d-Bpa)(d-Ser)(d-Trp)(d-Ser)(d-Phe4No2)(d-Cha)(d-Arg)(d-Arg)(d-Arg)(d-Gln)(d-Arg)(d-Arg)] (H-[dBpa][dS][dW][dS][dPhe(4-NO2)][dCha][dR][dR][dR][dQ][dR][dR]-OH; N-terminus and C-terminus assumed), in data set [6], the “Stability in serum (in words)” value is “more stable in serum”. On to “(d-Arg)(d-Arg)(d-Arg)(d-Arg)(d-Bpa)(d-Arg)(d-Trp)(d-Arg)(d-Phe-2,3,4,5,6-F)(d-Cha) [CBP702]”, for which, in the data set with Jurkat cells [3], the “G2 checkpoint abrogating activity (in words)” value was “retain G2 checkpoint abrogating activity comparable to other peptides having significant G2 checkpoint abrogating activity”.

Consider “(d-Arg)(d-Arg)(d-Arg)(d-Bpa)(d-Arg)(d-Arg)(d-Arg)(d-Phe-2,3,4,5,6-F)(d-Cha) [CBP703]”, for which, in the data set with Jurkat cells [3], the “G2 checkpoint abrogating activity (in words)” value is “retain G2 checkpoint abrogating activity comparable to other peptides having significant G2 checkpoint abrogating activity”. Still for that read-out and setting: the value for “(d-Arg)(d-Arg)(d-Arg)(d-Bpa)(d-Arg)(d-Trp)(d-Arg)(d-Phe-2,3,4,5,6-F)(d-Cha) [CBP701]” was “retain G2 checkpoint abrogating activity comparable to other peptides having significant G2 checkpoint abrogating activity”; that for “(d-Arg)(d-Arg)(d-Bpa)(d-Arg)(d-Arg)(d-Arg)(d-Phe-2,3,4,5,6-F)(d-Cha) [CBP700]” was “retain G2 checkpoint abrogating activity comparable to other peptides having significant G2 checkpoint abrogating activity”.
